Here are results for three compounds from patent US20070010565A1, “New thiazolidinones without basic nitrogen, their production and use as pharmaceutical agents” (priority 2005, published 2007).

The target in test [1] is T1, Recombinant human Plk-1 (6×His) (Homo sapiens, UniProt P53350).
T1 construct: 6xHis; made in house; host or cells: baculovirus-infected insect cells (Hi5)
Kind of test: PLK enzyme assay. Type of test: biochemical. The settings on record: biotinylated casein and 33P-γ-ATP substrate, 90 minutes at room temperature, SPA beads; read-out: PLK-1 IC50 [nM] Inhibition. How it is done: Recombinant human Plk-1 (6×His) was purified from baculovirus-infected insect cells (Hi5).
10 ng of (produced in a recombinant manner and purified) PLK enzyme is incubated for 90 minutes at room temperature with biotinylated casein and 33P-γ-ATP as a substrate in a volume of 15 μl in 384-well Greiner small-volume microtiter plates (final concentrations in the buffer: 660 ng/ml of PLK; 0.7 μmol of casein, 0.5 μmol of ATP incl. 400 nCi/ml of 33P-γ-ATP; 10 mmol of MgCl2, 1 mmol of MnCI2; 0.01% NP40; 1 mmol of DTT, protease inhibitors; 0.1 mmol of Na2VO3 in 50 mmol of HEPES, pH 7.5). To complete the reaction, 5 μl of stop solution (500 μmol of ATP; 500 mmol of EDTA; 1% Triton X100; 100 mg/ml of streptavidin-coated SPA beads in PBS) is added. After the microtiter plate is sealed by film, the beads are sedimented by centrifuging (10 minutes, 1500 rpm). The incorporation of 33P-γ-ATP in casein is intended as a measurement of enzyme activity by β-counting.
Test substances are used in various concentrations (0 μmol, as well as in the range of 0.01-30 μmol). The final concentration of the solvent dimethyl sulfoxide is 1.5% in all batches.

In test [2] the test system is human MaTu breast tumour cells. Kind of test: Proliferation assay (crystal violet). The test is classed as cell-based. Particulars: 96 h, 4 days incubation, read-out: Inhibition of the Tumour Cell Proliferation (MaTu) IC50. How it is done:
Cultivated human MaTu breast tumour cells were flattened out at a density of 5000 cells/measuring point in a 96-well multititer plate in 200 μl of the corresponding growth medium. After 24 hours, the cells of one plate (zero-point plate) were colored with crystal violet (see below), while the medium of the other plates was replaced by fresh culture medium (200 μl), to which the test substances were added at various concentrations (0 μm, as well as in the range of 0.01-30 μm; the final concentration of the solvent dimethyl sulfoxide was 0.5%). The cells were incubated for 4 days in the presence of test substances. The cell proliferation was determined by coloring the cells with crystal violet: the cells were fixed by adding 20 μl/measuring point of an 11% glutaric aldehyde solution for 15 minutes at room temperature. After three washing cycles of the fixed cells with water, the plates were dried at room temperature. The cells were colored by adding 100 μl/measuring point of a 0.1% crystal violet solution (pH was set at 3 by adding acetic acid). […] The extinction was determined by photometry at a wavelength of 595 nm. The change of cell growth, in percent, was calculated by standardization of the measured values to the extinction values of the zero-point plate (=0%) and the extinction of the untreated (0 μm) cells (=100%).

SMILES strings stand for the structures.

T1 sequence (P53350 whole entry): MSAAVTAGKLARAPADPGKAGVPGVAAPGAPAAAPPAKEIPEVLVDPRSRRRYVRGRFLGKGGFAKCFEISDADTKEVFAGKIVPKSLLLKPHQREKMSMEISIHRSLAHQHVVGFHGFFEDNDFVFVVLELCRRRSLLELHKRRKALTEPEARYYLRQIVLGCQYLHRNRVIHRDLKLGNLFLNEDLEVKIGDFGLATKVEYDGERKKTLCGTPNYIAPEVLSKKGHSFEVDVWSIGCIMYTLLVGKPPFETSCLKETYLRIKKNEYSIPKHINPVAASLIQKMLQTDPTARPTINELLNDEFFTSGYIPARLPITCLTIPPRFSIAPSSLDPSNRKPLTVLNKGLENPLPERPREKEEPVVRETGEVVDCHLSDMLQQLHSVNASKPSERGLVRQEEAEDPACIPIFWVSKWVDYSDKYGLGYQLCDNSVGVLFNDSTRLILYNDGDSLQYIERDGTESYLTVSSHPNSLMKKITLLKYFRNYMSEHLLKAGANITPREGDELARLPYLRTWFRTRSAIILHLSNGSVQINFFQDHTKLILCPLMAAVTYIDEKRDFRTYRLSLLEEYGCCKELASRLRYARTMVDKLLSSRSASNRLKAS

Consider `CCNC(=O)/C(C#N)=c1\sc(=Cc2ccc(O)cc2)c(=O)n1CC` [Example 3], for which the IC50 in test [1] was found to be 230 nM.

In the case of `C#CCNC(=O)/C(C#N)=c1\sc(=Cc2ccc(O)cc2)c(=O)n1CC` [Example 8], the IC50 in test [2] is 3.2 µM; in test [1], 39 nM.

For the compound `C#CCNC(=O)/C(C#N)=c1\sc(=Cc2ccc(N3CCCC3)cc2)c(=O)n1CC` [Example 10], the IC50 in test [1] was 23 nM.
